This note sets out measurements from ChEMBL document CHEMBL1131625, “Neurosteroid analogues. 6. The synthesis and GABAA receptor pharmacology of enantiomers of dehydroepiandrosterone sulfate, pregnenolone sulfate, and (3alpha,5beta)-3-hydroxypregnan-20-one sulfate” (J Med Chem, 1998).

The species entered for experiment [1] is Rattus norvegicus. Kind of experiment: Inhibition of GABA-mediated currents by compound. It is filed as functional.
For experiment [2], the target named is GABA-A receptor; anion channel. Kind of experiment: Inhibitory activity against Gamma-aminobutyric acid A (GABA-A) receptor of rat hippocampal neurons. It is filed as tissue-based, Hippocampus.
Experiment [3] is filed under the species Rattus norvegicus. Kind of experiment: The Non-competitive block of GABA-mediated currents in cultured neurons from rat ventral mesencephalon. It is filed as functional.

Broadly, the Ki is the equilibrium dissociation constant of an inhibitor or competing ligand from its target. Read a high Ki as lower affinity. Molecule `CC(=O)[C@@H]1CC[C@H]2[C@@H]3CC[C@H]4C[C@@H](OS(=O)(=O)O)CC[C@@]4(C)[C@H]3CC[C@@]12C` yielded an inhibition constant Ki in experiment [1] of 47 µM. The IC50 is the concentration that gives 50% inhibition. Low values mean greater potency, high ones weaker potency. In turn, `CC(=O)[C@@H]1CC[C@@H]2[C@H]3CC=C4C[C@H](OS(=O)(=O)O)CC[C@@]4(C)[C@@H]3CC[C@]21C` registered an IC50 in experiment [2] of 76 µM. The molecule `CC(=O)[C@H]1CC[C@H]2[C@@H]3CC[C@@H]4C[C@H](OS(=O)(=O)O)CC[C@]4(C)[C@H]3CC[C@]12C` yielded an IC50 in experiment [2] of 39 µM. In experiment [1], this molecule gave a Ki of 39 µM.

`CC(=O)[C@H]1CC[C@H]2[C@@H]3CC=C4C[C@@H](OS(=O)(=O)O)CC[C@]4(C)[C@H]3CC[C@]12C`: the IC50 in experiment [2] was found to be 82 µM. In experiment [2], `C[C@@]12CC[C@@H]3[C@H](CC=C4C[C@H](OS(=O)(=O)O)CC[C@]43C)[C@H]1CCC2=O` had an IC50 of 80 µM. Further, the Ki in experiment [3] is 81 µM. In experiment [2], `C[C@]12CC[C@H](OS(=O)(=O)O)CC1=CC[C@@H]1[C@@H]2CC[C@]2(C)C(=O)CC[C@@H]12` had an IC50 of 11 µM. The molecule also displayed a Ki in experiment [3] of 13 µM.
